Patent publication US9492450B2, “Inhibition of dynamin related protein 1 to promote cell death” (University of Pittsburgh—of the Commonwealth System of …, priority 2011, dated 2016)

Columns and labels:
[1] = system: Drp1; conditions: as said in Cassidy-Stone et al., Dev Cell 14:193-204; cited from earlier work
[2] = system: MDA-MB-231 cells; assay: DNA content flow cytometry (propidium iodide): G2/M arrest and aneuploidy; assay type: cell-based, human; conditions: mdivi-1 50 μM 24 and 48 h, siRNA 72 and 96 h
Protocol: Cell cycle distribution was determined by flow cytometric analysis of propidium iodide stained cells. The percentage of the cells containing a DNA content of 4N and a DNA content>4N are indicated. […] MDA-MB-231 cells were treated with either 5 μg/ml oligomycin, 5 μM FCCP, or 10 μg/ml antimycin A for 24 h. Cell cycle distribution was determined as described above.
Cell cycle distribution was determined by flow cytometric analysis of propidium iodide stained cells. The percentage of the cells containing a DNA content of 4N and >4N are indicated. Data presented in this figure are representative of three independent experiments.
For DNA content analysis, cells were trypsinized and fixed in 70% ice-cold ethanol overnight at 4° C. After fixation, the cells were washed with 1% BSA/PBS, and permeabilized using 0.25% triton-X 100 in 1% BSA/PBS. Cells were then incubated in PI solution (PBS containing 50 μg/ml of PI and 40 μg/ml of RNase A) for 30 min at room temperature.

[3] = system: MDA-MB-231 cells; assay: Cisplatin cytotoxicity under Drp1 inhibition (subG1, LIVE/DEAD kit, caspase Western blot); assay type: cell-based, human
Protocol: To test the effect of Drp-1 inhibition on the effectiveness of cisplatin, in a first series of experiments, MDA-MB-231 cells were transfected with control or Drp1 siRNA, and 48 hours later were then treated with 40 μM of cisplatin for a 24 hour period. The effect of different concentrations of cisplatin on the Drp1 knockdown cells is shown in FIG. 13A, where the subG1 portion in the cell cycle profile indicates cytotoxicity. In a second series of experiments, a LIVE/DEAD Viability/Cytotoxicity kit (Invitrogen) was used to evaluate the effect of inhibition of Drp1 by mdivi-1 on cisplatin cytotoxicity. In this test, the percentage of lice and dead cells are determined simultaneously with two probes, calcein AM and ethidium homodimer (EthD-1). […] EthD-1 is excluded by the intact plasma membrane of live cells but is able to enter cells with damaged membranes and undergo a 40-fold enhancement of red fluorescence upon binding to nucleic acids. […] Calcein AM and EthD-1 were added to the cell suspension at final concentrations of 0.1 μM and 8 μM, respectively, Fluorescence intensity was analyzed on a CyAn ADP Analyzer (Beckman Coulter, Brea, Calif.) and the results were analyzed using Summit software. The live-cell population that was positively stained with calcein was detected in the bottom right region and indicated with an arrow. […]

[4] = system: primary epithelial ovarian cancer (EOC) cells; assay: Ex vivo drug sensitivity assay on primary cells from ovarian cancer patient ascites; assay type: cell-based, human; conditions: MTS 72 h
Protocol: FIG. 20A-C. The combination of cisplatin and mdivi-1 efficiently overcomes acquired cisplatin resistance in human ovarian cancer cells, including those from endstage cisplatin- and treatment-refractory patient. (A) The comparison of cisplatin sensitivity in ovarian cancer cells A2780 and their derivative cisplatin-resistant A2780cis cells (left panel). A2780cis cells were treated with cisplatin alone or in combination with mdivi-1 for 72 h (right panel). The survival was determined by MTS assay. (B and C) Ex vivo drug sensitivity assay using primary EOC cells isolated from ascites fluid of ovarian cancer patients (B, treatment-naïve; C, cisplatin-resistant). Apoptosis was measured by caspase-3/7 activity assay after 20 h exposure and the survival was measured by MTS assay after 72 h exposure. […]
Cell proliferation was determined using a CyQUANT Direct Cell Proliferation Assay kit (Invitrogen), the activity of caspase-3/7 was measured using a Caspase-Glo 3/7 Assay Systems (Promega, Madison, Wis.), and the MTS colorimetric survival assay was performed using the CellTiter 96 AQueous One Solution Cell Proliferation Assay kit (Promega, Madison, Wis.), according to the manufacturer's instructions. The survival fractions were calculated after setting untreated control cells at 100%. […] The cytotoxic interactions between the two drugs was determined using the method of Chou and Talalay. […]

| SMILES | efficacy in inhibiting Drp1 relative to mdivi-1 [1] | G2/M cell cycle arrest and aneuploidy [2] | G2/M cell cycle arrest and aneuploidy ([2]; listed as Mdivi-1) | number of dead cells after cisplatin, coadministered with mdivi-1 ([3]; 50 μM mdivi-1, 12 hours, LIVE/DEAD kit) | number of apoptotic cells after cisplatin, coadministered with mdivi-1 ([3]; caspase activation by Western Blot) | IC50 ([4]; EOC cells of a patient not treated with cisplatin (treatment-naïve)) | IC50 ([4]; EOC cells of a patient with clinically-defined cisplatin resistance) |
| --- | --- | --- | --- | --- | --- | --- | --- |
| COc1cc(-n2c(=S)[nH]c3ccccc3c2=O)c(Cl)cc1Cl [mdivi-1] | full efficacy | induces G2/M cell cycle arrest and aneuploidy | induced the similar G2/M cell cycle arrest and aneuploidy | increased | increased | – | – |
| N.N.[Cl][Pt][Cl] [cisplatin] | – | – | – | – | – | ~7.97 µM | ~11.6 µM |
